Laboratory results published in US10487349B2, “Use of a fluidic device” (GRADIENTECH AB, priority 2013, dated 2019).

Key:
[1] = in agarose matrix; cited from earlier work
E. coli K12 MG1655 = experiment: Microfluidic 3D culture matrix concentration-gradient antibiotic susceptibility test (CELLDIRECTOR Ruby); assay type: cell-based, Escherichia coli; details: E. coli K12 MG1655 in agarose 3D culture matrix; gradient ampicillin 20-0 μg/ml or spectinomycin 50-0 μg/ml
Protocol: Bacterium strain E. coli K12 MG1655 was cultured on a Luria broth (LB) plate. The E. coli cells were diluted by phosphate buffered saline (PBS) to OD600=0.1 as measured by a MULTISKAN® FC Microplate Photometer (Thermo Scientific). Same volumes of PBS with OD600=0.1 cells and low-melting temperature agarose were mixed together. A pipette with white tips was used to suck up 8 μl of the mixture and inject the mixture into the culture chamber of a microfluidic device CELLDIRECTOR® Ruby (Gradientech AB), see upper panel in FIG. 20. The fluid channel inputs of the microfluidic device were connected to fluid reservoirs comprising Muelle-Hinton medium and where one of the reservoirs also contained 20 μg/ml ampicillin. The speed of a pusher used to draw the medium into the fluid channels was set to 5 μl/min for 30 minutes and then to 2 μl/min for the rest of the time. […]
The pictures were cut to match a selected central portion of the culture chamber, see black box in FIGS. 17A and 18A. Image processing software was used to extract detected light intensity data from the pictures. A spatial growth situation distribution diagram was used to summarize the grey-scale values, i.e. detected light intensity values, of all the lines that are perpendicular to the direction of the gradient as the Y-axis with the concentration gradient as the X-axis. […]

SMILES | diffusion constant D [1] [cm^2/h] | resistance of the microorganism to the test substance, from width of the border zone (E. coli K12 MG1655)
CC1(C)S[C@@H]2[C@H](NC(=O)[C@H](N)c3ccccc3)C(=O)N2[C@H]1C(=O)O [ampicillin] | 0.016 | no corresponding ampicillin resistance was detected
CN[C@@H]1[C@H](O)[C@H](NC)[C@H]2O[C@@]3(O)C(=O)C[C@@H](C)O[C@H]3O[C@@H]2[C@H]1O [spectinomycin] |  | presence of spectinomycin resistance
